Measured values published in patent US20230348394A1, “COMPOSITIONS AND METHODS FOR TREATING MUSCULAR DYSTROPHIES” (The Regents of the University of California, priority 2020, published 2023).
Structures can show the parent of a compound that is named as a salt.

test system: SSPN transcript; assay: SSPN gene expression after systemic (subcutaneous) treatment of mdx mice; assay type: in vivo; conditions: 20 mg/kg daily subcutaneous, 13 days, quadriceps
Method: For the preliminary safety assessment of OT-9, we performed IP injections in 6 month old C57/B16 males. The mice were injected with 100 μl of vehicle (5% DMSO (Sigma), 95% PBS), 100 μl of 30 mg/kg of OT-9 in vehicle, or 100 μl of 50 mg/kg of OT-9 in vehicle (n=1 mouse per treatment). […] For assessment of activity, 20-weeks old male mdx littermates were injected in both tibialis anterior muscles with vehicle (5% DMSO, 95% PBS) or 86 μg of OT-9. Two mice were injected in both TAs with vehicle and three mice were injected in both TAs with 200 of OT-9 (9.4 mM solution containing 86 μg of OT-9). After 4 hours, the muscles were harvested and processed for gene expression analysis. For assessment of activity of OT-9m after local administration, 19-22-weeks old mdx males were injected in both tibialis anterior muscles with vehicle (5% DMSO, 95% PBS) or 3 mg/kg and 10 mg/kg of OT-9m. After 4 hours, the muscles were harvested and processed for gene expression analysis. […]
Followed by local administration, we evaluated ability of OT-9m to enhance SSPN expression in mdx mice after systemic treatment. […] We determined that mice overexpressing sarcospan by 1.5-fold were not rescued, while mice overexpressing sarcospan by 3-fold were rescued.

SMILES	increase of SSPN transcript [fold]
COc1ccc2[nH]c(=O)c(C(=O)Nc3ccc(C(=O)N4CCCOCC4)cc3)cc2c1 [OT-9m, N-(4-(1,4-oxazepane-4-carbonyl)phenyl)-6-methoxy-2-oxo-1,2-dihydroquinoline-3-carboxamide]	2

test system: SSPN gene expression; assay: SSPN gene expression in tibialis anterior after intramuscular injection in mdx mice; assay type: in vivo; conditions: 3 mg/kg and 10 mg/kg intramuscular, 4 hours
Method: For the preliminary safety assessment of OT-9, we performed IP injections in 6 month old C57/B16 males. The mice were injected with 100 μl of vehicle (5% DMSO (Sigma), 95% PBS), 100 μl of 30 mg/kg of OT-9 in vehicle, or 100 μl of 50 mg/kg of OT-9 in vehicle (n=1 mouse per treatment). […] For assessment of activity, 20-weeks old male mdx littermates were injected in both tibialis anterior muscles with vehicle (5% DMSO, 95% PBS) or 86 μg of OT-9. Two mice were injected in both TAs with vehicle and three mice were injected in both TAs with 200 of OT-9 (9.4 mM solution containing 86 μg of OT-9). After 4 hours, the muscles were harvested and processed for gene expression analysis. For assessment of activity of OT-9m after local administration, 19-22-weeks old mdx males were injected in both tibialis anterior muscles with vehicle (5% DMSO, 95% PBS) or 3 mg/kg and 10 mg/kg of OT-9m. After 4 hours, the muscles were harvested and processed for gene expression analysis. For assessment of activity of OT-9m after systemic administration, 13-weeks old mdx males were injected subcutaneously with vehicle (4% PEG-200 in hydroxypropyl-b-cyclodextrin) or 20 mg/kg/day of OT-9m. After 13 days of treatment, the muscles were harvested and processed for gene expression analysis.
After the preliminary safety evaluation, we tested the ability of OT-9 to increase SSPN gene expression in vivo. […] Five 20-weeks old male mdx littermates were subjected to intramuscular injections in both tibialis anterior (TA) muscles. Two mice were injected in both TAs with vehicle and […] were injected with 3 mg/kg of OT-9 (molar equivalent of 9.4 mM used in the safety assessment). After 4 hours of treatment, the TAs were harvested and processed for gene expression analysis. […] After determination that OT-9 is capable of increasing SSPN gene expression in vivo, we evaluated one of its derivatives, OT-9m, for its ability to increase SSPN expression in mdx mice. OT-9m was chosen based on its improved activity in vitro compared to OT-9 (compare, Table 1, entries 1 & 14). To assess activity OT-9m in vivo after local administration, eleven 19-22 weeks old male mdx mice were subjected to intramuscular injections in both tibialis anterior (TA) muscles. Four mice were injected in both TAs with vehicle, three mice were injected with 3 mg/kg of OT-9m and four mice were injected with 10 mg/kg of OT-9m. After 4 hours of treatment, the TAs were harvested and processed for gene expression analysis.

SMILES	SSPN gene expression in tibialis anterior
COc1ccc2[nH]c(=O)c(C(=O)Nc3ccc(C(=O)N4CCCOCC4)cc3)cc2c1 [OT-9m, N-(4-(1,4-oxazepane-4-carbonyl)phenyl)-6-methoxy-2-oxo-1,2-dihydroquinoline-3-carboxamide]	increased SSPN gene expression

same assay, conditions: OT-9m 3 mg/kg and 10 mg/kg intramuscular, both TA, 4 hours

SMILES	adverse effects after local injection
COc1ccc2[nH]c(=O)c(C(=O)Nc3ccc(C(=O)N4CCCOCC4)cc3)cc2c1 [OT-9m, N-(4-(1,4-oxazepane-4-carbonyl)phenyl)-6-methoxy-2-oxo-1,2-dihydroquinoline-3-carboxamide]	No adverse effects

test system: SSPN-HiBiT protein (sarcospan); assay: C2C12 SSPN-HiBiT protein reporter assay (12-well and 384-well format); assay type: cell-based, murine; conditions: SSPN-HiBiT C2C12 myotubes, 5 μM
Method: C2C12 SSPN-HiBiT myoblasts were seeded at 25,000 cells per well in 2 ml of growth media in 12 well-plates and incubated for 3 days. Upon reaching confluency, the growth media was replaced with 2 ml of differentiation media. At day 2 of differentiation, the media on the cells was replaced with 2 ml of differentiation media containing compounds at a final concentration of 5.5 μM in 0.06% DMSO. For vehicle control-treated cells, 0.06% DMSO was added to the cells. After 48 hrs the cells were washed with PBS and frozen for 2-24 hrs. The plates containing cells were thawed on ice and 100 μl of ice-cold modified RIPA buffer containing 1% Triton X-100, 0.05% DOC, 0.05% SDS, and Halt Protease Inhibitor was added to each well. Cells were scratched, transferred into 1.5 ml tubes, and centrifuged for 20 min at 16,000×g at 4° C. The cell lysates were transferred into new tubes. DC assay was performed on cell lysates to determine protein concentration. White walled, white bottom 384-well microplates (Greiner) were prefilled with 15 μl of PBS and 15 μl of cell lysates were added to each well in triplicate. Then 30 μl Nano-Glo HiBiT Lytic Detection working solution was added to each well and incubated for 30 min at RT with shaking. The luminescence was measured on the EnVision plate reader and the signal was normalized to protein concentration and signal from vehicle-treated controls.
C2C12 SSPN-HiBiT myoblasts were seeded at 500 cells per well in 50 μl of growth media in 384-well white, clear bottom microplates (Greiner) and incubated for 3 days. Upon reaching confluency, the growth media was replaced with 50 μl of differentiation media consisting of phenol-red free DMEM with 2% horse serum (Sigma-Aldrich) using an EL406 combination washer dispenser (Biotek). At day 2 of differentiation, the media on the cells was aspirated, left with a residual volume of 10 μl, and replaced with 30 μl of fresh differentiation media. 0.5 μl of small molecule in DMSO or DMSO alone (for vehicle and positive control wells) were added to each well using a Biomek Fx (Beckman). To ensure proper mixing of the DMSO, 50 μl of additional differentiation media was added to all wells except the positive control treated wells. The final concentration of compound in each treated well was 0.5-10 μM in 0.55% DMSO and 0.55% DMSO only for vehicle. After 48 hrs of incubation, the plate was washed with phenol red-free DMEM, aspirated, and left with a residual volume of 5 μl using EL406 combination washer dispenser. After the wash, 25 μl of differentiation media containing 12 μM DRAQ5 nuclear stain was added to reach a final concentration 10 μM in each well and incubated for 15 min at 37° C. with 5% CO2. The cells were imaged using ImageXpress Micro Confocal High Content Imaging System (Molecular Devices). The nuclei count of imaged cells were determined using a custom module analysis in MetaXpress Analysis software (Molecular Devices). After imaging and analysis, the plate was aspirated, left with a residual volume of 5 μl and placed at −80° C. for 2-24 hrs. The plate was thawed at RT and 25 μl of PBS was added, followed by 30 μl of Nano-Glo HiBiT Lytic Detection working solution prepared according manufacturer recommendations. Luminescence was measured using the EnVision plate reader and the signal of each well was normalized to nuclei count and signal from vehicle-treated controls.
In order to effectively test new analogues, we created method for detecting SSPN protein in cells, e.g., SSPN-HiBiT. SSPN-HiBiT based on a murine C2C12 cell line expressing endogenous SSPN protein with an N-term fusion protein called the HiBiT, an 11 amino acid subunit of a luciferase enzyme (FIG. 10a). The SSPN-HiBiT protein is quantified through addition of substrate and a larger subunit of the luciferase enzyme to catalyze the formation of luminescent signal. […]

SMILES	increase in SSPN-HiBiT levels [fold]
O=C1Nc2ccc(I)cc2/C1=C/c1cc(Br)c(O)c(Br)c1 [GW5074, reference compound]	1.35

same assay, conditions: Table 1; *p<0.05

SMILES	SSPN-HiBiT, fold change over vehicle
CCN(CC)c1ccc2cc(C(=O)Nc3ccc(C(=O)N4CCCCCC4)cc3)cnc2c1	1.62* fold change over vehicle
CCN(CC)c1ccc2cc(C(=O)Nc3ccc(C(=O)N4CCCOCC4)cc3)cnc2c1	1.3* fold change over vehicle
Nc1ccc2ncc(C(=O)Nc3ccc(C(=O)N4CCCOCC4)cc3)cc2c1 [N-(4-(1,4-oxazepane-4-carbonyl)phenyl)-6-aminoquinoline-3-carboxamide hydrochloride]	1.09* fold change over vehicle
COc1ccc2nc(C)c(C(=O)Nc3ccc(C(=O)N4CCCOCC4)cc3)cc2c1	1.22* fold change over vehicle
CCN(CC)c1ccc2cc(C(=O)Nc3ccc(C(=O)N4CCN(C)CC4)cc3)cnc2c1	1.47* fold change over vehicle
CCN(CC)c1ccc2cc(C(=O)Nc3nnc(C(=O)N4CCOCC4)[nH]3)cnc2c1	1.34* fold change over vehicle
CCN(CC)C(=O)c1ccc(NC(=O)c2cc3ccccc3nc2C)cc1 [N-(4-(diethylcarbamoyl)phenyl)-2-methylquinoline-3-carboxamide]	1.08* fold change over vehicle
COc1ccc2[nH]c(=O)c(C(=O)Nc3ccc(C(=O)N4CCCOCC4)cc3)cc2c1 [OT-9m, N-(4-(1,4-oxazepane-4-carbonyl)phenyl)-6-methoxy-2-oxo-1,2-dihydroquinoline-3-carboxamide]	2.4* fold change over vehicle
COc1ccc2c(c1)CC(C(=O)Nc1ccc(C(=O)N3CCN(C)CC3)cc1)C(=O)N2 (stereo not drawn)	1.46* fold change over vehicle
CCN(CC)C(=O)c1ccc(NC(=O)c2cnc3cc(N(CC)CC)ccc3c2)cc1	1.75* fold change over vehicle
CCN(CC)C(=O)c1ccc(NC(=O)c2cc3ccc(F)cc3[nH]c2=O)cc1 [N-(4-(diethylcarbamoyl)phenyl)-7-fluoro-2-oxo-1,2-dihydroquinoline-3-carboxamide]	1.45* fold change over vehicle
COc1ccc2nc(C)c(C(=O)Nc3ccc(C(=O)N4CCCCCC4)cc3)cc2c1 [N-(4-(azepane-1-carbonyl)phenyl)-6-methoxy-2-methylquinoline-3-carboxamide]	1.4* fold change over vehicle
CCN(CC)C(=O)c1ccc(NC(=O)c2c(C)c3ccccc3[nH]c2=O)cc1 [N-(4-(diethylcarbamoyl)phenyl)-4-methyl-2-oxo-1,2-dihydroquinoline-3-carboxamide]	1.21* fold change over vehicle
COc1ccc2[nH]c(=O)c(C(=O)Nc3ccc(C(=O)N4CCCCCC4)cc3)cc2c1	1.03 fold change over vehicle
CCN(CC)C(=O)c1ccc(NC(=O)c2cc3cc(OC)ccc3[nH]c2=O)cc1	1.51* fold change over vehicle

same assay, conditions: Table 2; *p<0.05

SMILES	SSPN-HiBiT, fold change over vehicle
Cc1cc(C)c(C#N)c(OCC(=O)c2ccc(N(C)C)cc2)n1 [2-(2-(4-(dimethylamino)phenyl)-2-oxoethoxy)-4,6-dimethylnicotinonitrile]	1.09* fold change over vehicle
Cc1cc2cc(C#N)c(OCC(=O)c3ccc(O)cc3)nc2cc1C	1.21 fold change over vehicle
Cc1cc2cc(C#N)c(S(=O)(=O)CC(=O)c3ccc(F)cc3)nc2cc1C	1.23* fold change over vehicle
Cc1cc2cc(C#N)c(OCC(=O)c3ccc(F)cc3F)nc2cc1C	1.22* fold change over vehicle
Cc1cc2cc(C#N)c(OCC(=O)c3ccc(N(C)C)cc3)nc2cc1C [2-(2-(4-(dimethylamino)phenyl)-2-oxoethoxy)-6,7-dimethylquinoline-3-carbonitrile]	1.04* fold change over vehicle
Cc1cc(C)c2nc(OCC(=O)c3ccc(N(C)C)cc3)c(C#N)cc2c1 [2-(2-(4-(dimethylamino)phenyl)-2-oxoethoxy)-6,8-dimethylquinoline-3-carbonitrile]	1.3* fold change over vehicle
COc1ccc(C(=O)COc2nc3cc(C)c(C)cc3cc2C#N)cc1	1.27* fold change over vehicle
Cc1cc2cc(C#N)c(SCC(=O)c3ccc(F)cc3)nc2cc1C [2-((2-(4-fluorophenyl)-2-oxoethyl)thio)-6,7-dimethylquinoline-3-carbonitrile]	1.48* fold change over vehicle
